IC50 data for 9 compounds are collected here from patent publication US12371454B2, “Cyclic peptide compound having Kras inhibitory action” (priority 2019, dated 2025).

Starred links: 1 amine or outer side, 2 acyl side, 3 side chain; linkers in the order of their positions; H or OH if unused. Positions of bridges follow the written chain, without caps; N, C: chain ends. Non-standard residues stand in square brackets, D forms with d. Residues, ends and D or L forms follow the SMILES beside them. *: point of attachment. hPhe(3,5-F2-4-CF3) = N[C@@H](CCc1cc(F)c(C(F)(F)F)c(F)c1)C(=O)O; hPhe(3-Cl-4-CF3) = N[C@@H](CCc1ccc(C(F)(F)F)c(Cl)c1)C(=O)O; hPhe(3-F,4-CF3) = N[C@@H](CCc1ccc(C(F)(F)F)c(F)c1)C(=O)O; X58 = O=C([C@H](CCc1ccc(OC(F)(F)F)c(F)c1)N[*:1])[*:2]; NMePhe(4-CF3) = CN[C@@H](Cc1ccc(C(F)(F)F)cc1)C(=O)O; NMedβ3hAla = C[C@H](CC(=O)[*:2])N(C)[*:1]; NMeAla(cPent) = CN[C@@H](CC1CCCC1)C(=O)O; NMeGly(cPent) = CN[C@H](C(=O)O)C1CCCC1; NMeCha = CN[C@@H](CC1CCCCC1)C(=O)O; Hyp = O=C(O)[C@@H]1C[C@@H](O)CN1; NMeAhp(2) = CCCCC[C@H](NC)C(=O)O; NMeChg = CN[C@H](C(=O)O)C1CCCCC1; NMeI = CC[C@H](C)[C@H](NC)C(=O)O; NMeD = CN[C@@H](CC(=O)O)C(=O)O; NMeL = CN[C@@H](CC(C)C)C(=O)O; NMeV = CN[C@H](C(=O)O)C(C)C; NMeA = CN[C@@H](C)C(=O)O; Piperidide = C1CCN(*)CC1; X45 = FC(F)Oc1ccc(C*)cc1; dNMeA = CN[C@H](C)C(=O)O; Ac5c = NC1(C(=O)O)CCCC1; Aze = O=C(O)[C@@H]1CCN1; Sar = CNCC(=O)O

This test deals with Human pancreatic cancer cell line AsPC-1. The test is described as follows: Measurement of AsPC-1 cell growth inhibition (AsPC-1 CGI). It counts as cell-based. Particulars: 96 h. The gist of the method: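 AsPC-1 cells in 15% FBS RPMI-1640 were exposed to test compound for 96 hours at 37° C, with CellTiter-Glo as endpoint.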
Consider `CC[C@H](C)[C@@H]1NC(=O)[C@H](CC(C)C)N(C)C(=O)C[C@@H](C(=O)N2CCCCC2)N(C)C(=O)[C@H](CC(C)C)N(C)C(=O)C2(CCCC2)NC(=O)[C@@H]2C[C@@H](OCc3ccc(OC(F)F)cc3)CN2C(=O)[C@H](CCc2ccc(C(F)(F)F)c(F)c2)NC(=O)CN(C)C(=O)[C@H](CC2CCCCC2)N(C)C(=O)CN(C)C(=O)CN(C)C1=O` [Compound 2128] ([NMeL]I[Sar][Sar][NMeCha][Sar][hPhe(3-F,4-CF3)][Hyp](X45)[Ac5c][NMeL][NMeD]-Piperidide; lactam N-11), for which the 50% inhibitory concentration (IC50) was over 500 nM. The compound `CC[C@H](C)[C@@H]1NC(=O)[C@H](CC2CCCC2)N(C)C(=O)C[C@@H](C(=O)N(C)C)N(C)C(=O)[C@H](C2CCCC2)N(C)C(=O)C2(CCCC2)NC(=O)[C@@H]2CCCN2C(=O)[C@H](CCc2ccc(C(F)(F)F)c(F)c2)NC(=O)CN(C)C(=O)[C@H](CC2CCCCC2)N(C)C(=O)[C@@H]2CCN2C(=O)[C@H](C)NC1=O` [Compound 1340] ([NMeAla(cPent)]IA[Aze][NMeCha][Sar][hPhe(3-F,4-CF3)]P[Ac5c][NMeGly(cPent)][NMeD]-NMe2; lactam N-11) showed an IC50 of 20 to 50 nM. To `CC[C@H](C)[C@@H]1NC(=O)[C@H](CC(C)C)N(C)C(=O)C[C@@H](C(=O)N2CCCCC2)N(C)C(=O)[C@H](C2CCCC2)N(C)C(=O)C2(CCCC2)NC(=O)[C@@H]2CCCN2C(=O)[C@H](CCc2ccc(OC(F)(F)F)c(F)c2)NC(=O)CN(C)C(=O)[C@H](CC2CCCCC2)N(C)C(=O)[C@@H]2CCN2C(=O)[C@H](C)N(C)C1=O` [Compound 2067] ([NMeL]I[NMeA][Aze][NMeCha][Sar][X58]P[Ac5c][NMeGly(cPent)][NMeD]-Piperidide; lactam N-11) belongs 20 to 50 nM; to `CC[C@H](C)[C@@H]1NC(=O)[C@H](CC(C)C)N(C)C(=O)C[C@@H](C(=O)N2CCCCC2)N(C)C(=O)[C@H]([C@@H](C)CC)N(C)C(=O)C2(CCCC2)NC(=O)[C@@H]2CCCN2C(=O)[C@H](CCc2ccc(C(F)(F)F)c(F)c2)NC(=O)CN(C)C(=O)[C@H](C2CCCC2)N(C)C(=O)[C@@H]2CCN2C(=O)[C@H](C)N(C)C1=O` [Compound 674] ([NMeL]I[NMeA][Aze][NMeGly(cPent)][Sar][hPhe(3-F,4-CF3)]P[Ac5c][NMeI][NMeD]-Piperidide; lactam N-11), 50 to 100 nM; to `CC[C@H](C)[C@@H]1NC(=O)[C@H](CC(C)C)N(C)C(=O)C[C@@H](C(=O)N2CCCCC2)N(C)C(=O)[C@H](C2CCCC2)N(C)C(=O)C2(CCCC2)NC(=O)[C@@H]2CCCN2C(=O)[C@H](CCc2ccc(C(F)(F)F)c(Cl)c2)NC(=O)CN(C)C(=O)[C@H](C2CCCC2)N(C)C(=O)[C@@H]2CCN2C(=O)[C@H](C)N(C)C1=O` [Compound 182] ([NMeL]I[NMeA][Aze][NMeGly(cPent)][Sar][hPhe(3-Cl-4-CF3)]P[Ac5c][NMeGly(cPent)][NMeD]-Piperidide; lactam N-11), 20 to 50 nM.

As to `CC[C@H](C)[C@@H]1NC(=O)[C@H](C)N(C)C(=O)C[C@@H](C)N(C)C(=O)[C@H](C(C)C)N(C)C(=O)C2(CCCC2)NC(=O)[C@@H]2CCCN2C(=O)[C@H](CCc2ccc(C(F)(F)F)c(Cl)c2)NC(=O)[C@@H](C)N(C)C(=O)[C@H](CC2CCCCC2)N(C)C(=O)[C@@H]2CCN2C(=O)[C@H](C)N(C)C1=O` [Compound 1773] (cyclo([Ac5c][NMeV][NMedβ3hAla][NMeA]I[NMeA][Aze][NMeCha][dNMeA][hPhe(3-Cl-4-CF3)]P)), the IC50 fell in the range of 100 to 500 nM.

In the case of `CCCCC[C@H]1C(=O)N[C@@H]([C@@H](C)CC)C(=O)N(C)[C@@H](C)C(=O)N2CC[C@H]2C(=O)N(C)[C@@H](CC2CCCCC2)C(=O)N(C)CC(=O)N[C@@H](CCc2ccc(C(F)(F)F)c(Cl)c2)C(=O)N2CCC[C@H]2C(=O)NC2(CCCC2)C(=O)N(C)[C@@H](C(C)C)C(=O)N(C)[C@H](C(=O)N2CCCCC2)CC(=O)N1C` [Compound 1705] ([NMeAhp(2)]I[NMeA][Aze][NMeCha][Sar][hPhe(3-Cl-4-CF3)]P[Ac5c][NMeV][NMeD]-Piperidide; lactam N-11), the IC50 fell in the range of 100 to 500 nM. To `CCO[C@@H]1C[C@H]2C(=O)NC3(CCCC3)C(=O)N(C)[C@@H](C3CCCCC3)C(=O)N(C)[C@H](C)CC(=O)N(C)[C@@H](CC(C)C)C(=O)N[C@@H]([C@@H](C)CC)C(=O)N(C)[C@@H](C)C(=O)N3CC[C@H]3C(=O)N(C)[C@@H](Cc3ccc(C(F)(F)F)cc3)C(=O)N(C)CC(=O)N[C@@H](CCc3cc(F)c(C(F)(F)F)c(F)c3)C(=O)N2C1` [Compound 486] (cyclo([Ac5c][NMeChg][NMedβ3hAla][NMeL]I[NMeA][Aze][NMePhe(4-CF3)][Sar][hPhe(3,5-F2-4-CF3)][Hyp](Et))) belongs 50 to 100 nM. Compound `CC[C@H](C)[C@@H]1NC(=O)[C@H](CC(C)C)N(C)C(=O)C[C@@H](C(=O)N2CCCCC2)N(C)C(=O)[C@H](C2CCCCC2)N(C)C(=O)C2(CCCC2)NC(=O)[C@@H]2CCCN2C(=O)[C@H](CCc2ccc(C(F)(F)F)c(Cl)c2)NC(=O)CN(C)C(=O)[C@H](CC2CCCCC2)N(C)C(=O)[C@@H]2CCN2C(=O)[C@H](C)N(C)C1=O` [Compound 249] ([NMeL]I[NMeA][Aze][NMeCha][Sar][hPhe(3-Cl-4-CF3)]P[Ac5c][NMeChg][NMeD]-Piperidide; lactam N-11) showed an IC50 of 100 to 500 nM.
